Series [1] has as its system EV71. Nature of the series: Neutralization test: inhibition of EV71-induced CPE on Vero cells. Type of series: cell-based, Enterovirus 71 (Shenzhen 98, shzh01-8). The note with it: for IC50: CPE on Vero cells, 100 TCID50, Reed-Muench; for EV71 SI: selectivity index. Here is the method: (§1) The anti-EV71 activity, anti-CVA16 activity, and cytotoxicity of the compounds on the EV71 test strain (Shenzhen 98, shzh01-8) and CVA16 (laboratory viral culture) were evaluated by using cell culture cytopathic effect assays.
(§2) This assay measured the ability of the test compounds to inhibit the CPE induced by EV71 and CVA16 on Vero cells. The 96-well tissue culture plates were seeded with 20,000 Vero cells/mL. The plates were incubated for 24 h at 37 °C. The virus (100 TCID50) mixed with different concentrations of the test compounds was added to the cells, which were incubated at 37 °C for 2 h. After adsorption, the infected cells were overlaid with 50 μL of Dulbecco’s modified Eagle’s medium with 5% fetal bovine serum, and 2% DMSO. […] All assays were performed in triplicate.

Another series deals with CVA16. As to the kind of experiment: Neutralization test: inhibition of CVA16-induced CPE on Vero cells. The class given is cell-based, Coxsackievirus A16 (laboratory viral culture). As to conditions: for IC50: CPE on Vero cells, 100 TCID50, Reed-Muench; for CVA16 SI: selectivity index. Here is the method: as §1, §2
The test system of a further series is Vero cells. As to the kind of experiment: Cytotoxicity assay on Vero cells. As to conditions: for TC50: 96 h, concentration reducing cell viability to 50%. The class given is cell-based. Here is the method:
The Vero cells treated with the test compounds were incubated at 37 °C for 96 h. After incubation, the cells were harvested and counted.

Series [2] relates to EV71. Set-up: method as in PMID 23519203. The note with it: pirodavir; cited from earlier work.
Details of series [3]: method as in PMID 23519203. The note with it: pirodavir; cited from earlier work.

Values joined by “and” are separate entries in the source; they are usually repeats but may differ in a detail not shown here. Equal values may be shown once. Read-outs that look alike come from different tables or passages of the source.

What is called IC50 is the concentration that gives 50% inhibition. Regarding `COc1ccc(OCCCCCN2CCN(c3nccs3)CC2)cc1` [Compound 8a, 2-(4-(5-(4-Methoxyphenoxy)pentyl)piperazin-1-yl)thiazole], the IC50 with EV71 [1] (Enterovirus A, EV71, Vero) is 100 ± 9 µM; in the series on CVA16 (Enterovirus A, CVA16, Vero), 69.2 ± 5.5 µM. Also, the “EV71 SI” value with EV71 [1] is given as 2.8. Moreover, in the series on CVA16, the “CVA16 SI” value is reported as 4.0. In the series on Vero cells, this compound displayed a TC0 of 138 ± 9.6 µM. In the series on Vero cells, the TC50 is 277 ± 2.2 µM.

As usually defined, the melting point is the temperature of the solid-liquid transition. The compound `CCOc1ccc(OCCCCCN2CCN(c3nccs3)CC2)cc1` [Compound 8b, 2-(4-(5-(4-Ethoxyphenoxy)pentyl)piperazin-1-yl)thiazole] had a melting point of 79 to 81 °C. Besides, in the series on EV71 [1] (Enterovirus A, EV71, Vero), the IC50 worked out at 21 ± 1.2 µM. Further, the “EV71 SI” value in the series with EV71 [1] was found to be 3.2. The half-inhibitory concentration (IC50) with CVA16 (Enterovirus A, CVA16, Vero) is 5.3 ± 0.3 µM. In addition, the “CVA16 SI” value with CVA16 amounted to 12.7. Moreover, in the series on Vero cells, the TC0 is 33.3 ± 3.9 µM and the TC50 is 66.6 ± 1.0 µM.

Turning to `CCOc1ccc(OCCCCCCN2CCN(c3nccs3)CC2)cc1.Cl` [Compound 8c, 2-(4-(6-(4-Ethoxyphenoxy)hexyl)piperazin-1-yl)thiazole hydrochloride], the melting point is 222 to 224 °C. This compound also returned an IC50 in the series with EV71 [1] (Enterovirus A, EV71, Vero) of 4.3 ± 0.1 µM. Further, the “EV71 SI” value in the series on EV71 [1] came to 12.7. In the series on CVA16 (Enterovirus A, CVA16, Vero), this compound gave an IC50 of 6.8 ± 0.4 µM. Besides, in the series with CVA16, the “CVA16 SI” value worked out at 8.0. In the series on Vero cells, the TC0 stood at 6.8 ± 0.1 µM and the TC50 came to 54.1 ± 8.1 µM.

With `CCc1ccc(OCCCCCCN2CCN(c3nccs3)CC2)cc1.Cl` [Compound 8d, 2-(4-(6-(4-Ethylphenoxy)hexyl)piperazin-1-yl)thiazole hydrochloride], the melting point lay in the range of 240 to 242 °C. For the same compound, the midpoint of inhibition with EV71 [1] (Enterovirus A, EV71, Vero), the IC50, lay at 4.4 ± 0.3 µM. The “EV71 SI” value in the series on EV71 [1] came out at 12.7. Moreover, in the series on CVA16 (Enterovirus A, CVA16, Vero), the midpoint of inhibition, the IC50, lay at 14 ± 0.5 µM. Also, the “CVA16 SI” value with CVA16 is 4.0. In the series on Vero cells, this compound registered a TC0 of 28.0 ± 2.5 µM and a TC50 of 56.0 ± 3.3 µM.

For `CC(C)c1ccc(OCCCCCCN2CCN(c3nccs3)CC2)cc1.Cl` [Compound 8e, 2-(4-(6-(4-Isopropylphenoxy)hexyl)piperazin-1-yl)thiazole hydrochloride], the melting point was in the range of 135 to 137 °C. In the series with EV71 [1], inhibition was half-maximal at 4.3 µM (IC50) and the “EV71 SI” value worked out at 10.1. Besides, in the series with EV71 [1] (Enterovirus A, EV71, Vero), half-maximal inhibition (IC50) was put at 4.28 µM. In the series on CVA16, the IC50 was 1.2 ± 0.5 µM and the “CVA16 SI” value is 34.8. Further, in the series with CVA16 (Enterovirus A, CVA16, Vero), the IC50 amounted to 1.24 µM. Also, in the series on Vero cells, the TC0 was 6.8 ± 0.8 µM; the TC50 was 43.08 µM and 43.1 ± 4.7 µM.

`CC(C)(C)c1ccc(OCCCCCCN2CCN(c3nccs3)CC2)cc1` [Compound 8f, 2-(4-(6-(4-tert-Butylphenoxy)hexyl)piperazin-1-yl)thiazole] yielded a melting point of 30 to 32 °C. Moreover, the half-inhibitory concentration (IC50) in the series with EV71 [1] (Enterovirus A, EV71, Vero) was 3.9 ± 0.1 µM. Also, the “EV71 SI” value in the series with EV71 [1] is listed as 4.0. Also, the 50% inhibitory concentration (IC50) in the series on CVA16 (Enterovirus A, CVA16, Vero) was found to be 7.8 ± 0.6 µM. In addition, the “CVA16 SI” value in the series with CVA16 stood at 2.0. Moreover, in the series on Vero cells, the TC0 came out at 7.8 ± 0.4 µM and the TC50 was 15.6 ± 0.3 µM.

Take `CCCCc1ccc(OCCN2CCN(c3cc(Cl)nnc3Cl)CC2)cc1` [Compound 9a]: the half-inhibitory concentration (IC50) in the series with EV71 [1] (Enterovirus A, EV71, Vero) was 1.2 µM; in the series on CVA16 (Enterovirus A, CVA16, Vero) it was 1.4 ± 0.1 µM. For the same compound, the “EV71 SI” value with EV71 [1] is given as 16.1. For the same compound, in the series with CVA16, the “CVA16 SI” value is 13.8. For the same compound, in the series with Vero cells, the TC0 was 7.7 ± 0.3 µM. This compound also displayed a TC50 in the series with Vero cells of 19.2 ± 0.7 µM.

As to `Clc1cc(N2CCN(CCOc3ccc(-n4cnnc4)cc3)CC2)c(Cl)nn1` [Compound 9b], the IC50 in the series on EV71 [1] (Enterovirus A, EV71, Vero) is 21.6 ± 1.4 µM; in the series with CVA16 it was greater than 29.7 µM; with CVA16 (Enterovirus A, CVA16, Vero), greater than 29.7 µM. Also, the “EV71 SI” value in the series with EV71 [1] came out at 8.7. The TC0 with Vero cells is 29.74 µM and 29.7 ± 2.2 µM. In the series with Vero cells, this compound showed a TC50 of 189 ± 17.3 µM.

`CCOc1ccc(OCCN2CCN(c3cc(Cl)nnc3Cl)CC2)cc1` [Compound 9c] registered an IC50 in the series on EV71 [1] (Enterovirus A, EV71, Vero) greater than 31.5 µM. In addition, it took 10.8 ± 0.3 µM to reach half-maximal inhibition in the series on CVA16 (Enterovirus A, CVA16, Vero) (IC50). Further, the “CVA16 SI” value in the series with CVA16 came to 5.8. Moreover, in the series with Vero cells, the TC0 is 31.5 ± 2.1 µM and the TC50 was found to be 62.9 ± 2.4 µM.

With `COC(=O)c1ccc(OCCC2CCN(c3cc(Cl)nnc3Cl)CC2)cc1` [Compound 9d], the IC50 in the series with EV71 [1] (Enterovirus A, EV71, Vero) was greater than 31.5 µM. The compound also showed a 50% inhibitory concentration (IC50) in the series with CVA16 (Enterovirus A, CVA16, Vero) of 22.1 ± 1.1 µM. The “CVA16 SI” value in the series on CVA16 is recorded as 8.7. In the series on Vero cells, this compound returned a TC0 of 30.5 ± 2.0 µM and a TC50 of 193 ± 19.3 µM.

As to `CCOC(=O)c1ccc(OCCC2CCN(c3ccnnc3Cl)CC2)nc1` [Compound 9f], the 50% inhibitory concentration (IC50) in the series on EV71 [1] (Enterovirus A, EV71, Vero) is 25.4 ± 1.7 µM; in the series on CVA16 (Enterovirus A, CVA16, Vero), 16 ± 0.9 µM. Moreover, the “EV71 SI” value in the series on EV71 [1] was greater than 20.2. Besides, in the series with CVA16, the “CVA16 SI” value is listed as greater than 32.0. In the series on Vero cells, this compound had a TC0 of 128 ± 9.5 µM. The same compound showed a TC50 in the series with Vero cells greater than 512 µM.

For the compound `CCOC(=O)c1ccc(OCCC2CCN(c3ccc(C)nn3)CC2)cc1` [pirodavir], in the series with EV71 [2], the IC50 is 1200 ± 200 nM and the SI is on record as 25. Also, the TC50 in series [3] was 31 ± 2.2 µM.

(Values after publication PMC6269887, “Novel Substituted Heteroaromatic Piperazine and Piperidine Derivatives as Inhibitors of Human Enterovirus 71 and Coxsackievirus A16” (Molecules, 2013).)
